Patent US7122624B2, “Parathyroid hormone receptor ligands” (The United States of America as represented by the …, priority 1999, dated 2006)
Non-standard residues stand in square brackets, D forms with d. Residues, ends and D or L forms follow the SMILES beside them. Nle = CCCC[C@H](N)C(=O)O

Experiments:
P1-NP2 receptor = biological target: T1, P1-NP2 receptor (Homo sapiens, UniProt P49190+Q03431, A289V/A293V/A295V/A297V/A304T/A311S/A320V/A325S/A362L/C381A/C397Y/D272E/D303N/D313N/DEL207-232/E308D/E392Q/F286L/F386V/F400L/G327V/G351R/G390L/H202T/H204A/H352C/H384T/I205A/I234A/I238V/I244L/I280T/I282F/I314K/I344L/I393V/INS200[…]/INS383Y/K237R/K356Q/L281V/L334I/L370P/L382T/L389T/L399M/M242F/M427S/N263S/R199A/R305G/R394Q/S385E/S410A/T192V/T273K/T336I/T387S/V185L/V201A/V241T/V267M/V296S/V350G/V369M/V371L/V380M/V424I/W345R/Y318I/Y415F); test: Filtration binding assay, COS-7 membranes, P1-NP2 chimeric receptor; conditions: 10 μM GTPγS
T1 construct: the N-terminal domain and first transmembrane domain of the PTH2 receptor fused to the remainder of the PTH1 receptor (P1-NP2); exchanging residues 215–594 of the PTH1 receptor; expressed in transfected cells; host or cells: COS-7 (transient)

P2-NP1 receptor = biological target: T2, P2-NP1 receptor (Homo sapiens, UniProt P49190+Q03431, A242R/A272V/A275H/A276I/A279I/A426C/A456S/C397H/D353E/DEL244-271/DEL429-429/DEL62-106/E317D/E431S/F287M/F327I/F461Y/G350R/G395V/I363Y/I379L/I381T/I470V/INS277[…]/K318T/K359I/L228V/L289I/L331F/L389I/L407A/L416V/L436G/L446F/M312V/M414V/M425V/M445L/N348D/N358D/P415L/Q401K/Q438E/Q440R/R282K/R390W/R396G/S308N/S341V/S356A/S370A/S433T/S473M/T273H/T286V/T325I/T349A/T427L/T430H/T435L/V235T/V283I/V326L/V334A/V338A/V340A/V342A/V365A/V372G/V432F/V439I/Y443C); test: Filtration binding assay, COS-7 membranes, P2-NP1 chimeric receptor; conditions: 10 μM GTPγS
T2 construct: N-terminal domain and first transmembrane domain of the PTH 1 receptor fused to the remainder of the PTH2 receptor (P2-NP1); residues 172–550 of the PTH2 receptor; expressed in transfected cells; host or cells: COS-7 (transient)

PTH2 receptor [1] = biological target: T3, PTH2 receptor (Homo sapiens, UniProt P49190); test: Radioligand displacement binding to HEK293 cell membranes expressing the human PTH2 receptor; conditions: 10 μM GTPγS, filtration assay
Procedure: In these assays the binding of a range of concentrations of an unlabeled ligand was measured by displacement of radioligand binding. Three methods were employed. An assay employing centrifugation to separate bound and free radioligand was used to accurately measure ligand binding parameters. A higher-throughput method employing rapid filtration was used to generate comparative ligand binding data. […] In these assays a very low concentration of radioligand was used so that the IC50 closely approximates the ligand affinity.
In the centrifugation assay cell membranes (45–50 μg), radioligand (100,000–300,000 cpm) and unlabeled ligand were incubated in a final volume of 1 ml assay buffer (20 mM HEPES, 100 mM NaCl, 1 mM EDTA, 3 mM MgSO4 pH 7.5, supplemented with 0.3% non-fat dried milk powder, 100 μM AEBSF and 1 μg/ml bacitracin) for two hours at 21° C. Membranes were collected at 18,000×g, the surface of the pellet gently washed and the radioactivity counted as described in Examples. […] Less than 20% of the total radioligand added was bound within the membrane pellet. […] (Greater than 50% of the total radioligand was bound if all the membrane in the incubation was from transfected cells).
For inhibition of radioligand binding, y is the cpm bound at a given unlabeled ligand concentration, min is non-specific binding (measured in the presence of a high concentration of the unlabeled version of the radiolabeled ligand) and max is total binding (measured in the absence of unlabeled ligand).
Binding was measured in the presence of 10 μM GTPγS to minimize complications arising from receptor-G-protein coupling, such as pseudo-irreversible binding of the agonist radioligand.
A similar assay design was used for the PTH1 and PTH2 receptor, in which radiolabeled agonist binding was displaced by the unlabeled ligands in the presence of 10 μM GTPγS. […] Membranes were collected at 18,000×g, the surface of the pellet gently washed and the radioactivity counted as described in Examples. […]

PTH1 receptor = test: Filtration binding assay, COS-7 membranes, wild-type PTH1 receptor; design: species or system human; conditions: 10 μM GTPγS
PTH2 receptor [2] = biological target: T3, PTH2 receptor; test: Filtration binding assay, COS-7 membranes, wild-type PTH2 receptor; design: expressed in transfected cells; host or cells: COS-7 (transient), pcDNA1/Amp; conditions: 10 μM GTPγS
human PTH1 receptor [3] = biological target: T4, human PTH1 receptor (Homo sapiens, UniProt Q03431); test: [125I]TIP(7–39) saturation and kinetic binding to the human PTH1 receptor in HEK293 cell membranes; design: expressed in transfected cells; conditions: estimated by Equation 4 from [125I]TIP(7–39) association; read-out: dissociation rate constant of unlabeled ligand (converted)
T4 sequence (Q03431 27-593): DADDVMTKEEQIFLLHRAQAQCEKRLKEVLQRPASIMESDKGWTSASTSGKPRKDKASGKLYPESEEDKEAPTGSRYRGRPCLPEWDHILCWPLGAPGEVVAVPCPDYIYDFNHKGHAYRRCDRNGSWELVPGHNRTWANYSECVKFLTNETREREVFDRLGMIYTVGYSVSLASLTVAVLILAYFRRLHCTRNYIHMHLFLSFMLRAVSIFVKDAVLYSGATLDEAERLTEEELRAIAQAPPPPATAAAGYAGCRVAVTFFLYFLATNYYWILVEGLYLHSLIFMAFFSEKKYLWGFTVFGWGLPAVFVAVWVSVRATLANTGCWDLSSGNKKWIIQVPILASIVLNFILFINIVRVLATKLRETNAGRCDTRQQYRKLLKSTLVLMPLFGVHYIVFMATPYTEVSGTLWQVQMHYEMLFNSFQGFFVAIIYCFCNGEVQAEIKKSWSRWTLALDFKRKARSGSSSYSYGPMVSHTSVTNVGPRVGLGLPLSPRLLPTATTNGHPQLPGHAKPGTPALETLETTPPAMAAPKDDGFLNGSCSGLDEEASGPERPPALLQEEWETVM
Procedure: Binding of [^125I]TIP(7–39) to HEK293 membranes expressing the PTH1 receptor (FIGS. 21 and 22) was performed using rapid filtration to separate bound and free radioligand as described in Examples, using the assay buffer described above. Incubations were carried out in 96-well polypropylene plates. The incubation mixture was transferred to a polyvinylidene fluoride filtration plate (MAHVN45, Millipore, Bedford, Mass.) and the membranes collected by rapid filtration using a Millipore Multiscreen vacuum manifold. In saturation experiments, varying concentrations of [^125I]TIP(7–39) were incubated in triplicate with 10 μg membranes in the absence or presence of 1 μM unlabeled TIP(7–39) (for measurement of total binding and non-specific binding, respectively) for 1 hour at 21° C. In radioligand association experiments, radioligand and buffer were brought to 21° C. by incubation in a water bath for 15 minutes. Similarly pre-warmed membranes were then added to the wells at various time points and the assay wells harvested simultaneously. Non-specific binding in these experiments was defined using 300 nM unlabeled TIP(7–39), incubated with membranes and radioligand for 1 minute and 60 minutes. In the experiment in FIG. 23 a second, unlabeled ligand was included in the assay incubation in order to estimate the association and dissociation rate constants of the unlabeled ligand (see below). In dissociation experiments radioligand and membranes were equilibrated for 60 minutes prior to addition of unlabeled TIP(7–39) (300 nM final concentration) at various time points. All time points were harvested simultaneously. (As a result the shorter time points of the time course were equilibrated with radioligand for between 1 and 2 hours.) Non-specific binding was defined using 300 nM unlabeled TIP(7–39), which was included in the equilibration phase of the assay.
[^125I]TIP(7–39) saturation of the PTH1 receptor was analyzed as follows: First, non-specific binding (measured in the presence of 1 μM TIP(7–39)) was estimated as a fraction of the free radioligand concentration by linear regression. The values of KD and Bmax were obtained by fitting total binding data (measured in the absence of unlabeled ligand) to the following equation using Prism 2.01:
[^125I]TIP(7–39) association data (total binding) were fitted to a bi-exponential association equation to account for association to specific and non-specific sites (FIG. 23). This procedure was used because the value of non-specific binding measured after 60 minutes was slightly greater than the value measured after 1 minute. In the analysis the equilibrium level of non-specific binding was fixed at that measured at 60 minutes. The observed association rate constant for non-specific binding was high (>2 min^−1). The observed association rate of specific radioligand (L) binding (kon(obs)) was fitted by linear regression to the equation kon(obs)=koff+kon[L] where kon and koff are the association and dissociation rate constants respectively. [^125I]TIP(7–39) dissociation data were fitted to a mono-exponential dissociation equation.
The association and dissociation rate constants of unlabeled ligands were determined using the method devised by Motulsky and Mahan, Mol Pharmacol 25, 1–9, 1984, in which association of a radiolabeled antagonist ([^125I]TIP(7–39)) is measured in the presence of a fixed concentration of the unlabeled ligand. […]

human PTH1 receptor [4] = biological target: T4, human PTH1 receptor; design: expressed in transfected cells; host or cells: COS-7 (transient); conditions: cited from earlier work
[5] = biological target: T5, C-terminal hemaglutinin-tagged human PTH1 receptor (Homo sapiens, UniProt Q03431); test: cAMP accumulation in COS-7 cells expressing a C-terminal hemaglutinin-tagged human PTH1 receptor; assay type: cell-based; conditions: COS-7; five experiments; read-out: Emax, % of the maximal response to rPTH(1–34)
T5 sequence (Q03431 27-593): T4 sequence (Q03431 27-593)

human PTH1 receptor [6] = biological target: T4, human PTH1 receptor; test: cAMP accumulation in HEK293 cells stably expressing the human PTH1 receptor (293PTH1); assay type: cell-based; design: expressed in transfected cells; conditions: 293PTH1 cells, cAMP
PTH2 receptor [7] = biological target: T3, PTH2 receptor; test: cAMP accumulation in COS-7 cells transiently expressing the human PTH2 receptor; assay type: cell-based; design: expressed in transfected cells; host or cells: COS-7 (transient); conditions: COS-7
Text: Cell culture supplies were obtained from Life Technologies (Frederick, Md.) except for fetal bovine serum which was from Sigma (St. Louis, Mo.).
The constructs containing the cDNA sequences of the human PTH2 receptor and β-galactosidase have been previously described.
All peptides were purchased from either Bachem (Torrance, Calif.) or Peninsula Laboratories (Belmont, Calif.). The letters ‘b,’ ‘r’ and ‘h’ designate the peptide sequence as bovine, rat and human, respectively. […] [α-^32P]dCTP was purchased from ICN Biomedicals (Costa Mesa, Calif.). Bovine hypothalamic extract was prepared by acid extraction, gel-filtration and reverse-phase HPLC as previously described. […] Antagonist inhibitory potency was examined by measuring the concentration-dependence of rPTH(1–34)-stimulated cAMP accumulation in the presence and absence of antagonist.
Statistical comparison of two sample means was evaluated using the two-tailed Student's t-test. […] Antagonist inhibitory potency was quantified using the pA2, value, the negative logarithm of the concentration of antagonist that produces a two-fold decrease of agonist EC50. This was calculated using the following equation: pA2=((EC50/EC50′)−1)−log [antagonist]

T3 sequence (P49190 25-550): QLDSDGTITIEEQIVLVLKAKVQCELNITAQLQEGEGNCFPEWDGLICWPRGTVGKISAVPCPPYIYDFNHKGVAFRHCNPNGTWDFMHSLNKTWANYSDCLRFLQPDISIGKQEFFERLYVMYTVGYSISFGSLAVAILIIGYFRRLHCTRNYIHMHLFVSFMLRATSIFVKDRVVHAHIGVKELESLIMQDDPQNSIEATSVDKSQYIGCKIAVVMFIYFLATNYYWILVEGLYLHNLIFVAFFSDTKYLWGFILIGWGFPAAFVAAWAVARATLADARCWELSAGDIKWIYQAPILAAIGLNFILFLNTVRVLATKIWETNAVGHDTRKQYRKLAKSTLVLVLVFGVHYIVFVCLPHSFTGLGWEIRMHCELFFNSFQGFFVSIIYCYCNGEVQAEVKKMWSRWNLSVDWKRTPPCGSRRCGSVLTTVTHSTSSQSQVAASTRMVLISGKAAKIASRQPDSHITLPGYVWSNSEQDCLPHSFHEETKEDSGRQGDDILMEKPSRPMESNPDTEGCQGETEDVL
T1 sequence (P49190+Q03431 fused with the stated changes): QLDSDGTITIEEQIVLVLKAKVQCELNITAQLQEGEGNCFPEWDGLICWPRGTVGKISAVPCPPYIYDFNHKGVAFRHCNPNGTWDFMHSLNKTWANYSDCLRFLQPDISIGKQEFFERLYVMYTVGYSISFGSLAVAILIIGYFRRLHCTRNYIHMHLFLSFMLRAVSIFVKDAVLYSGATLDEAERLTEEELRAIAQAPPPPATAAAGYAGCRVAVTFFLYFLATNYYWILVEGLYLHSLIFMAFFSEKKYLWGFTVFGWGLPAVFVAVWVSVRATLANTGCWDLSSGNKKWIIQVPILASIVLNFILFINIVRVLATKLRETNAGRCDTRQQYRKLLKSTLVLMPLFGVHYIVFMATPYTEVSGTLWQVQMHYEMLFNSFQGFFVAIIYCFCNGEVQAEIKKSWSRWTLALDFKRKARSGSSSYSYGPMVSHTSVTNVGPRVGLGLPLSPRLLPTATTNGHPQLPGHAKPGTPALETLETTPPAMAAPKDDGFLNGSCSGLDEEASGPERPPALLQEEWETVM
T2 sequence (Q03431+P49190 fused with the stated changes): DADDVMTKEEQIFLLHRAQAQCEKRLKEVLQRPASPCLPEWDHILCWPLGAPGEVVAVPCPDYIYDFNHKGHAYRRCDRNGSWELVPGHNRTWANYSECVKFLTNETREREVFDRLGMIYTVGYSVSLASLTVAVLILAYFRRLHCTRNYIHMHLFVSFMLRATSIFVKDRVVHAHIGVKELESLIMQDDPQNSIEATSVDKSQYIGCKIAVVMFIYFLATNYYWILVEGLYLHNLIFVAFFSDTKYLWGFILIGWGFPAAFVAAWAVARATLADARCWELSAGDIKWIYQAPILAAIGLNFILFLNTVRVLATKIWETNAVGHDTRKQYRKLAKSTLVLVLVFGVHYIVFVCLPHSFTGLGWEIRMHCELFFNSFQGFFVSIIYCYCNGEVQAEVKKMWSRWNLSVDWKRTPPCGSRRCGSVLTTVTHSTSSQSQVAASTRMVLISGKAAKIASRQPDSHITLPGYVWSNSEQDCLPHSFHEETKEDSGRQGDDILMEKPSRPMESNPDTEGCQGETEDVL

Compound | reduction of radioligand binding (P1-NP2 receptor) | reduction of radioligand binding (P2-NP1 receptor) | reduction of [125I]TIP39 binding (PTH2 receptor [1]) | reduction of radioligand binding (PTH1 receptor) | reduction of radioligand binding (PTH2 receptor [2]) | koff (human PTH1 receptor [3]) | Bmax (human PTH1 receptor [4]; homologous displacement experiments) | Kd (human PTH1 receptor [4]; reported previously) | Emax [5] | activation of the PTH1 receptor (human PTH1 receptor [6]) | EC50 (PTH2 receptor [7]; activation of adenylyl cyclase, figures in brackets) | agonist character (PTH2 receptor [7]; cAMP) | Emax (PTH2 receptor [7]; read-out: Emax, % of response to 1 μM hPTH(1-34), intrinsic activity)
Nc1nc2c(ncn2[C@@H]2O[C@H](COP(=O)(O)OP(=O)(O)OP(O)(O)=S)[C@@H](O)[C@H]2O)c(=O)[nH]1 [GTPγS] | 63±1% | 69±6% | 62±2% | 5±2% | 53±4% | – | – | – | – | – | – | – | –
CCCC[C@H](NC(=O)[C@H](CO)NC(=O)[C@H](CO)NC(=O)[C@H](CC(C)C)NC(=O)[C@H](Cc1c[nH]cn1)NC(=O)[C@H](CCCCN)NC(=O)CNC(=O)[C@H](CC(C)C)NC(=O)[C@H](CC(N)=O)NC(=O)[C@H](Cc1c[nH]cn1)NC(=O)[C@H](CCCC)NC(=O)[C@H](Cc1ccccc1)NC(=O)[C@H](CCC(N)=O)NC(=O)[C@@H](NC(=O)[C@H](CCC(=O)O)NC(=O)[C@@H](N)CO)[C@@H](C)CC)C(=O)N[C@@H](CCC(=O)O)C(=O)N[C@@H](CCCNC(=N)N)C(=O)N[C@H](C(=O)N[C@@H](CCC(=O)O)C(=O)N[C@@H](Cc1c[nH]c2ccccc12)C(=O)N[C@@H](CC(C)C)C(=O)N[C@@H](CCCNC(=N)N)C(=O)N[C@@H](CCCCN)C(=O)N[C@@H](CCCCN)C(=O)N[C@@H](CC(C)C)C(=O)N[C@@H](CCC(N)=O)C(=O)N[C@@H](CC(=O)O)C(=O)N[C@H](C(=O)N[C@@H](Cc1c[nH]cn1)C(=O)N[C@@H](CC(N)=O)C(=O)N[C@@H](Cc1ccc(O)cc1)C(N)=O)C(C)C)C(C)C [[Nle^8,18, Tyr^34]bPTH(3-34), [Nle^8,18, Tyr^34]bPTH(3–34) amide] (H-SEIQF[Nle]HNLGKHLSS[Nle]ERVEWLRKKLQDVHNY-NH2; N-terminus assumed) | – | – | – | – | – | 0.0005 s⁻¹ | 0.7 pmol/mg | 2 nM | 26 ± 4% | not detected | 5.2 nM | partial agonists | 37 ± 3%
